This is an account of results in paper PMC4492759, “Pharmacological profiling of the hemodynamic effects of cannabinoid ligands: a combined in vitro and in vivo approach” (Pharmacology Research & Perspectives, 2015).

Structures are written as SMILES. Read-outs that look alike come from different tables or passages of the source.

Data set [1] can be described thus: Blood concentration estimated from dose and blood volume. Conditions: ACEA 3 mg kg−1; assuming total blood volume ∼20 mL in a 300 g rat. An excerpt: Therefore, in an attempt to determine whether GPR55 plays a role in the depressor response to ACEA we studied the hemodynamic responses in anesthetized WT and GPR55^−/− mice.
The target in the next data set is T1, mouse GPR55 (Mus musculus, UniProt Q3UJF0).
T1 construct: expressed in transfected cells; host or cells: HEK293s, transient transfection; membranes prepared
Nature of the data set: [35S]-GTPγS binding, membranes of HEK293s cells transfected with mouse GPR55. In kind it is biochemical. Conditions: mean ± SEM. The protocol:
(§1) HEK293s cells were transiently transfected with cDNA encoding rat or mouse CB1 or GPR55 and membranes were prepared as previously described (Ryberg et al. [2007]). In short, agonist activities in [^35S]-GTPγS binding assays were determined by the addition of ligand at 30°C for 45 min in membrane buffer [50 mmol/L NaCl, 5 mmol/L MgCl2, 0.5 mmol/L EDTA, 25 mmol/L HEPES (all Sigma, Gillingham, Dorset, UK); pH 7.4] containing 0.05 μg μL^−1 of membrane protein with 0.01% BSA, 25 μmol/L guanosine 5′-diphosphate (GDP), 100 μmol/L dithiothreitol (DTT), and 0.53 nmol/L [^35S]GTPγS (PerkinElmer) in a final volume of 200 μL. Antagonist assays were performed similarly, with the addition of an EC80 concentration of CP55940 as a nonselective CB1/CB2 agonist in conjunction with the ligand to be tested. Nonspecific binding was determined in the presence of 20 μmol/L unlabeled GTPγS. The reaction was terminated by addition of ice-cold wash buffer (50 mmol/L Tris-HCl, 5 mmol/L MgCl2, 50 mmol/L NaCl; pH 7.4) followed by rapid filtration under vacuum through 96-well B-glass fiber filter plates (PerkinElmer, Waltham, Massachusetts, USA) using a Biomek FX (Beckman Coulter, Bromma, Sweden). The filter plates were dried (30 min at 50°C) before scintillation liquid (PerkinElmer) was added onto the filters and the bound radioactivity was determined using a scintillation counter (Wallac). Data were fitted with a four-parameter logistic fit using the equation y = A + (B − A)/1 + ((C/x)^D), where A is no activation, B is full activation, C is the EC50, and D is the Hill slope. All data were based on at least three independent experiments.
(In general: GTPγS is a poorly hydrolysed GTP analogue; its binding reports G protein activation.)

Another data set concerns the target T2, rat GPR55 (Rattus norvegicus, UniProt F1MAK4).
T2 construct: expressed in transfected cells; host or cells: HEK293s, transient transfection; membranes prepared
T2 sequence (F1MAK4 1-319): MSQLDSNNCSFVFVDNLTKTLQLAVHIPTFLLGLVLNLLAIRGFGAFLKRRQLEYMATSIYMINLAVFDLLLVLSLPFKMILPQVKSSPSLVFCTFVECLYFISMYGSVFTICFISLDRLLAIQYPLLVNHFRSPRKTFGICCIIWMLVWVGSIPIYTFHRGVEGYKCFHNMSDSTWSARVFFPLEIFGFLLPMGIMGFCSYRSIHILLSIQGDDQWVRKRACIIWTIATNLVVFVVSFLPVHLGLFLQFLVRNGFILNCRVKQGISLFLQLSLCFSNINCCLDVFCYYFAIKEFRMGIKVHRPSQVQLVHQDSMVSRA
In words: [35S]-GTPγS binding, membranes of HEK293s cells transfected with rat GPR55. It counts as biochemical. How it is done: as §1

Data set [2] relates to anesthetized Sprague–Dawley (SD) rats. Nature of the data set: Hemodynamic responses (MABP, HR) in anesthetized normotensive rats. In kind it is in vivo, rat. The protocol:
(§2) All experiments performed under terminal anesthesia were carried out following approval by Robert Gordon University Animal Ethics Panel. Anesthesia was induced in male SD rats (200–300 g) by sodium pentobarbital [60 mg kg^−1 intraperitoneal (i.p.) injection]. Male/female WT and GPR55^−/− mice (25–35 g) were anesthetized with a mixture of ketamine (120 mg kg^−1) and xylazine (16 mg kg^−1) via i.p. injection. For both species the trachea was cannulated to allow artificial respiration with room air when required (54 strokes min^−1 and tidal volume 1.5 mL 100 g^−1 for rats; 120 strokes min^−1 and tidal volume 100 μL 10 g^−1 for mice) and the left carotid artery and right jugular vein were cannulated for the measurement of arterial BP (MLT844 Physiological Pressure Transducer; AD Instruments, Oxford, UK) and drug administration, respectively. Core temperature was monitored continuously and maintained at 37–38°C with the aid of a Vetcare heated pad (Harvard Apparatus Ltd., Boston, Massachusetts, USA). Anesthesia was monitored by foot pinch reflex and maintained throughout by administration of additional doses of anesthetic (rats: 3–4 mg kg^−1 of sodium pentobarbital salt i.v.; mice: 50 μL 25 g^−1of ketamine/xylazine i.p.) every 40 min, or as required. […] Heart rate (HR) was calculated from the ECG and recorded throughout the entire experimental period. After a stabilization period of approximately 15 min dose–response experiments were carried out as described below.
(§3) As a preliminary assessment of the effects of ACEA on arterial BP, a single bolus intravenous dose (3 mg kg^−1; selected from the literature as a dose known to produce a depressor response) was given to anesthetized rats. […] The time interval between drug administrations was 10–15 min to allow BP values to return to predrug values.

In a further data set the target is T3, rat CB1 (Rattus norvegicus, UniProt P20272).
T3 construct: expressed in transfected cells; host or cells: HEK293s, transient transfection; membranes prepared
In words: [35S]-GTPγS binding, membranes of HEK293s cells transfected with rat CB1. Conditions: for EC50: mean ± SEM. In kind it is biochemical. How it is done:
(§4) Antagonist assays were performed similarly, with the addition of an EC80 concentration of CP55940 as a nonselective CB1/CB2 agonist in conjunction with the ligand to be tested. Nonspecific binding was determined in the presence of 20 μmol/L unlabeled GTPγS. The reaction was terminated by addition of ice-cold wash buffer (50 mmol/L Tris-HCl, 5 mmol/L MgCl2, 50 mmol/L NaCl; pH 7.4) followed by rapid filtration under vacuum through 96-well B-glass fiber filter plates (PerkinElmer, Waltham, Massachusetts, USA) using a Biomek FX (Beckman Coulter, Bromma, Sweden). The filter plates were dried (30 min at 50°C) before scintillation liquid (PerkinElmer) was added onto the filters and the bound radioactivity was determined using a scintillation counter (Wallac). Data were fitted with a four-parameter logistic fit using the equation y = A + (B − A)/1 + ((C/x)^D), where A is no activation, B is full activation, C is the EC50, and D is the Hill slope. All data were based on at least three independent experiments.

Data set [3] relates to anesthetized WT and GPR55−/− mice. In words: Hemodynamic responses (MABP, HR) in anesthetized WT and GPR55−/− mice. In kind it is in vivo, mouse. The protocol: as §2, §3
In the next data set the target is T4, mouse CB1 (Mus musculus, UniProt P47746).
T4 construct: expressed in transfected cells; host or cells: HEK293s, transient transfection; membranes prepared
Nature of the data set: [35S]-GTPγS binding, membranes of HEK293s cells transfected with mouse CB1. It counts as biochemical. As to conditions: mean ± SEM. The protocol: as §4

For data set [4], the system named is conscious WT, CB1−/− and GPR55−/− mice. In words: Blood pressure and heart rate responses in conscious mice (WT, CB1−/−, GPR55−/−). As to conditions: metoprolol (10 mg kg−1 i.v.); conscious GPR55−/− mice.
[5] abbreviates: agonist mode, at least three experiments, read-out: GPR55 EC50, Mouse.
Where [6] appears, read: agonist mode, at least three experiments, read-out: CB1 EC50, Mouse.
The mark [7] stands for this setting: antagonist mode, vs EC80 concentration of CP55940, read-out: CB1 EC50, Mouse (ligand behaved as an antagonist).

T4 sequence (P47746 whole entry): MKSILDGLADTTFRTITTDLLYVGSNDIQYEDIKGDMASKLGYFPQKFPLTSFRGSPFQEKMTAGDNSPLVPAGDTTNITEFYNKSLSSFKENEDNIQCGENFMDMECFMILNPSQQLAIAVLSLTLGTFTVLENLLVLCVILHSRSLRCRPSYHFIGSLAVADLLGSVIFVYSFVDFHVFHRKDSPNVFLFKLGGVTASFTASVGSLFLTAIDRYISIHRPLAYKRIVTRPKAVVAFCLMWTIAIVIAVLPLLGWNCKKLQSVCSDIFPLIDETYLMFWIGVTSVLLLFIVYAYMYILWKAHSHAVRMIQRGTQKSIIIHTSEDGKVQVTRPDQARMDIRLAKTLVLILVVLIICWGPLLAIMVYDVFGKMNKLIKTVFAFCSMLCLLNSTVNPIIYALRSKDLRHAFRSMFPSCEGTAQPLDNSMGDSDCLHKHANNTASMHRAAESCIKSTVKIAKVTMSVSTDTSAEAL
T1 sequence (Q3UJF0 whole entry): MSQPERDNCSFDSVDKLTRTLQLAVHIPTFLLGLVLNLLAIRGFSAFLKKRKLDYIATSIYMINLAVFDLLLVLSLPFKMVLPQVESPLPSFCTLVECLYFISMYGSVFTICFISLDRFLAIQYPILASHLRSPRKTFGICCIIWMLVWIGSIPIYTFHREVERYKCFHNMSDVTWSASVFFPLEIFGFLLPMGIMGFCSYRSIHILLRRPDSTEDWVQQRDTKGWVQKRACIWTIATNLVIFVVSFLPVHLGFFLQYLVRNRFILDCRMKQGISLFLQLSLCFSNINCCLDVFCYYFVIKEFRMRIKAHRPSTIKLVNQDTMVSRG
T3 sequence (P20272 whole entry): as the sequence (P47746 whole entry) above, with D95E counted along it

For orientation: EC50 means the midpoint of the concentration-response curve. For the compound `CCCCC/C=C\C/C=C\C/C=C\C/C=C\CCCC(=O)NCCCl` [ACEA, arachidonyl-2′-chloroethylamide], the “expected total (not necessarily free) blood concentration” value in data set [1] is 100 to 120 nmol/L. Moreover, the EC50 was determined as 0.062 ± 0.003 µM on mouse GPR55 (setting [5]); 0.078 ± 0.004 µM on rat GPR55 (agonist mode, mean ± SEM, at least three experiments, read-out: GPR55 EC50, Rat); 0.007 ± 0.001 µM at rat CB1 (agonist mode, at least three experiments, read-out: CB1 EC50, Rat); 0.003 ± 0.0005 µM at mouse CB1 (setting [6]). Also, the “effect on HR” value in data set [2] (ACEA single bolus 3 mg kg−1 i.v.) was “no effect”; in data set [3] (ACEA 3 mg kg−1, WT and GPR55−/− mice), “nor was there any measurable effect”. Further, the “blood pressure (MABP) response” value in data set [2] (ACEA single bolus 3 mg kg−1 i.v., P < 0.001) was “reproducible and pronounced depressor response”. For the same compound, the “higher affinity for CB1 as compared to GPR55” value on rat CB1 (GTPγS binding, both mouse and rat) is “approximately 10 fold”. In addition, in data set [3] (ACEA 3 mg kg−1, either WT or GPR55−/− mice), the “depressor response distinguishable from vehicle” value is “did not produce a depressor response”.

Take `CCCCC/C=C\C/C=C\C/C=C\C/C=C\CCCC(=O)NCCO` [AEA, anandamide]: the results for the EC50 at mouse GPR55 (setting [5]) and at rat GPR55 were 0.038 ± 0.003 µM and 0.024 ± 0.003 µM, respectively.

Regarding `Cc1c(C(=O)NN2CCCCC2)nn(-c2ccc(Cl)cc2Cl)c1-c1ccc(I)cc1` [AM251, 1-(2,4-dichlorophenyl)-5-(4-iodophenyl)-4-methyl-N-(piperidin-1-yl)-1H-pyrazole-3-carboxamide], the EC50 at mouse GPR55 (setting [5]) came out at 0.068 ± 0.003 µM; at rat GPR55, 0.074 ± 0.003 µM; at mouse CB1 (setting [7]), 0.013 ± 0.002 µM. The “effect on magnitude and duration of the depressor response to ACEA” value in data set [2] (AM251 1 and 3 mg kg−1, ACEA 3 mg kg−1, dose-dependent, P < 0.01) is reported as “attenuated”. For the same compound, the “higher potency for CB1 (antagonist) than GPR55 (agonist)” value at rat CB1 (GTPγS binding, rat and mouse) is reported as “three to five”. Moreover, in data set [3] (AM251 (1 and 3 mg kg−1) with CBD (50 μg kg−1), mice), the “depressor response in the presence of CBD” value is “augmented”.

`Cc1c(C(=O)NN2CCOCC2)nn(-c2ccc(Cl)cc2Cl)c1-c1ccc(I)cc1` [AM281, 1-(2,4-dichlorophenyl)-5-(4-iodophenyl)-4-methyl-N-4-morpholinyl-1H-pyrazole-3-carboxamide]: the EC50 at mouse GPR55 (setting [5]) is more than 30 µM; at rat GPR55 it was more than 30 µM; on rat CB1 (antagonist mode, vs EC80 concentration of CP55940, read-out: CB1 EC50, Rat (ligand behaved as an antagonist)), 0.013 ± 0.004 µM; on mouse CB1 (setting [7]) it was 0.008 ± 0.001 µM.

Consider `C=C(C)[C@@H]1CCC(C)=C[C@H]1c1c(O)cc(CCCCC)cc1O` [CBD, cannabidiol], for which the EC50 is 0.78 ± 0.008 µM at mouse GPR55 (antagonist mode, vs EC80 concentration of CP55940, read-out: GPR55 EC50, Mouse (ligand behaved as an antagonist)); 0.624 ± 0.013 µM on rat GPR55; more than 30 µM at mouse CB1 (setting [6]). Besides, the “effect on HR” value in data set [2] (CBD 50 μg kg−1, any experiments (rats and mice), data not shown) is on record as “unaffected”. In data set [2] (CBD alone 50 μg kg−1, ACEA 3 mg kg−1, P < 0.05), the “reduction of AAC value of the depressor response to ACEA” value is listed as “approximately 50%”. Besides, the blood pressure response result in data set [2] (CBD alone 50 μg kg−1 single bolus, P < 0.05) was “small but measurable and statistically significant depressor response”; in data set [3] (CBD alone 50 μg kg−1, WT and GPR55−/− mice), “depressor responses of a similar magnitude”.

With `COCCc1ccc(OCC(O)CNC(C)C)cc1` (stereo not drawn) [metoprolol], in data set [4], the “effect on HR” value was “profound and long-lasting bradycardia”.
